Source: patent publication US10246442B2, “4-Aminoquinazolin compounds as prolyl hydroxylase inhibitors” (JANSSEN PHARMACEUTICA NV, priority 2011, dated 2019)

Experiments:
PHD2181-417 = PHD2181-417 (Homo sapiens (Human), UniProt Q9GZT9); test: PHD enzymatic assay ([14C]-succinic acid production); format: biochemical; settings: purified PHD2181-417, HIF-1α peptide substrate, 30 min pre-incubation; average of results
Procedure: Expression and Purification of PHD2181-417
The human PHD2 expression construct containing amino acids 181-417 of GenBank Accession ID NM_022051 was cloned into a pBAD vector (Invitrogen), incorporating both an N-terminal histidine tag and a Smt3-tag, both of which are cleaved by Ulp1. Protein production was achieved by expression in BL21 cells grown in Terrific Broth containing 100 μg/ml ampicillin. Cell cultures were inoculated at 37° C. and grown to an OD600 of 0.8. Cultures were induced with 0.1% arabinose and grown overnight at 20° C. with continuous shaking at 225 rpm. Cells were then harvested by centrifugation and stored at −80° C. Cell pellets were suspended in Buffer A (50 mM Tris-HCl pH 7.2, 100 mM NaCl, 100 mM L-arginine, 1 mM TCEP, 0.05% (w/v) NP-40, 50 mM imidazole) followed by the addition of lysozyme and benzonase. Cells were lysed by sonication and the lysate was cleared by centrifugation (15,000 rpm, 90 min, 4° C.). The protein was purified by nickel affinity chromatography using a HisTrap Crude FF column (GE Healthcare). Samples were eluted in Buffer A with a 50-200 mM imidazole gradient. Cleavage of the Smt tag with Ulp1 protease was achieved via overnight incubation with dialyzing against Buffer A. The PHD2181-417 sample was then passed over a second HisTrap Crude FF column (GE Healthcare) to remove uncleaved protein. The flow-through was then dialyzed into 50 mM MES pH 6.0, 1 mM TCEP, 5 mM NaCl for ion exchange chromatography on a HiTrap SP Cation Exchange column (GE Healthcare). The PHD2181-417 protein was eluted with a 0-0.2 M NaCl gradient. Fractions were pooled for further purification by size exclusion chromatography over a Superdex 75 Size Exclusion Column (GE Healthcare). Final protein was concentrated to 4 mg/ml and dialyzed in 10 mM PIPES pH 7.0, 100 mM NaCl, 0.5 mM TCEP.
(10 μM, California Peptide Research Inc., Napa, Calif.), and [5-^14C]-2-oxoglutaric acid (50 mCi/mmol, Moravek Chemicals, Brea, Calif.) in reaction buffer (40 mM Tris-HCl, pH 7.5, 0.4 mg/ml catalase, 0.5 mM DTT, 1 mM ascorbate) for 10 minutes. Compounds were pre-incubated for 30 min before starting the reaction (all test compounds were dissolved at 10 mM in 100% DMSO (w/v) and were tested with final compound concentrations at 100 μM in 1% DMSO (w/v)). The reaction was stopped by addition of 50 μl of 70 mM H3PO4 and 50 μl of 500 mM NaH2PO4, pH 3.2. Detection of [^14C]-succinic acid was achieved by separating from [5-^14C]-2-oxoglutaric acid by incubating the reaction mixture with 100 μl of 0.16 M DNP prepared in 30% perchloric acid. Next, 50 μl of unlabeled 20 mM 2-oxoglutaric acid/20 mM succinic acid, serving as carrier for the radioactivity, was added to the mixture, and was allowed to proceed for 30 minutes at room temperature. The reaction was then incubated with 50 μl of 1 M 2-oxoglutaric acid for 30 additional minutes at room temperature to precipitate the excess DNP. The reaction was then centrifuged at 2800×g for 10 minutes at room temperature to separate [^14C]-succinic acid in the supernatant from the precipitated [^14C]-dinitrophenylhydrazone. Fractions of the supernatant (400 μI) were counted using a beta counter (Beckman Coulter, Fullerton, Calif.). Inhibition of PHD2181-417 activity was measured as a decrease in succinic acid production. The IC50 values were estimated by fitting the data to a three-parameter logistic function using GraphPad Prism, version 4.02 (Graph Pad Software, San Diego, Calif.).

[1] = tested on: Erythropoietin secretion, Hep-3B cells; test: Cellular assay: EPO secretion in Hep-3B cells; format: cell-based; settings: Homo sapiens, Hep3B, 100 μM compound, 24 hours, percent of EPO secretion relative to assay control compound 7-[(4-Chloro-phenyl)-(5-methyl-isoxazol-3-ylamino)-methyl]-quinolin-8-ol, read-out: Cellular % EPO Stimulation
Procedure: Hep-3B cells (ATCC, Manassas, Va.) were plated in 96-well plates at 20,000 cells per well in 100 μl of DMEM containing 10% fetal bovine serum, 1% non-essential amino acids, 50 IU/mL of penicillin and 50 μg/mL of streptomycin (all cell culture reagents from Invitrogen, Carlsbad, Calif.). Twenty-four hours after plating, compounds were added and incubated for an additional 24 hours. All compounds were tested with final compound concentrations at 100 μM. Fifty microliters of the supernatant was then transferred to a human Hypoxia assay kit (Meso-Scale Discovery, Gaithersburg, Md.). Erythropoietin in the supernatant was detected according to the manufacturer's instructions as follows. EPO detection plates were blocked with 3% BSA in PBS overnight and 50 μl of the supernatant was incubated at room temperature in an orbital shaker for 2 h. Twenty-five microliters of 0.5 μg/ml anti-EPO detection antibody was added for 2 hours at room temperature in an orbital shaker. After 3 washes in PBS, 150 μl of 1× read buffer is added and the plate is then read on the MSD SECTOR instrument. Data was analyzed by determining the percent of EPO secretion in the presence of 100 μM compound relative to an assay control compound, 7-[(4-Chloro-phenyl)-(5-methyl-isoxazol-3-ylamino)-methyl]-quinolin-8-ol.

PHD2181-417, sequence (Q9GZT9 181-417): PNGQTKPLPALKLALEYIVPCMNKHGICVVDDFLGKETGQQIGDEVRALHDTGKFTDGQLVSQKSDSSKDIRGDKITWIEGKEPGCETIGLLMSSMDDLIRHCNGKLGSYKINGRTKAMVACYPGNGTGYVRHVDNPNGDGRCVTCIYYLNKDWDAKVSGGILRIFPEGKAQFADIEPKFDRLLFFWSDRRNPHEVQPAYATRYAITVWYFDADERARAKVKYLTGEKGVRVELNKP

| Enzyme pIC50 (PHD2181-417) | SMILES | activation at 100 µM [1] [%] |
| --- | --- | --- |
| 7.1 | Cc1cccc(C)c1Oc1cc2c(NC3CC3)nc(-n3cc(C(=O)O)cn3)nc2cc1F [Example 14, 1-((4-Cyclopropylamino)-6-(2,6-dimethylphenoxy)-7-fluoroquinazolin-2-yl)-1H-pyrazole-4-carboxylic acid] | 86 |
| 6.8 | O=C(O)c1cnn(-c2nc(NC3CC3)c3cc(Oc4ccccc4)ccc3n2)c1 [Example 75, 1-(4-(Cyclopropylamino)-6-phenoxyquinazolin-2-yl)-1H-pyrazole-4-carboxylic acid] | 20 |
| 6.8 | CC(C)c1ccc2nc(-n3cc(C(=O)O)cn3)nc(N3CCCC3)c2c1 [Example 187, 1-(6-isopropyl-4-(pyrrolidin-1-yl)quinazolin-2-yl)-1H-pyrazole-4-carboxylic acid] | 28 |
| 6.8 | O=C(O)c1cnn(-c2nc(N3CCSCC3)c3cc(-c4ccccc4)ccc3n2)c1 [Example 54, 1-(6-Phenyl-4-thiomorpholinoquinazolin-2-yl)-1H-pyrazole-4-carboxylic acid] | 25 |
| 7.3 | O=C(O)c1cnn(-c2nc(N3CCCC3)c3cc(Oc4ccc(Cl)cc4)ccc3n2)c1 [Example 61, 1-(6-(4-Chlorophenoxy)-4-(pyrrolidin-1-yl)quinazolin-2-yl)-1H-pyrazole-4-carboxylic acid] | 96 |
| 6.4 | O=C(O)c1cnn(-c2nc(N3CCCC3)c3cc(C4CCCCC4)ccc3n2)c1 [Example 25, 1-(6-Cyclohexyl-4-(pyrrolidin-1-yl)quinazolin-2-yl)-1H-pyrazole-4-carboxylic acid] | 39 |
| 6.6 | O=C(O)c1cnn(-c2nc(N3CCOCC3)c3cc(OC4CCCCC4)c(F)cc3n2)c1 [Example 100, 1-(7-Fluoro-6-(cyclohexyloxy)-4-morpholinoquinazolin-2-yl)-1H-pyrazole-4-carboxylic acid] | 18 |
| 7.0 | CC(C)c1cc2c(NC3CC3)nc(-n3cc(C(=O)O)cn3)nc2cc1Cl [Example 165, 1-(7-chloro-4-(cyclopropylamino)-6-isopropylquinazolin-2-yl)-1H-pyrazole-4-carboxylic acid] | 24 |
| 7.4 | CN(C)c1nc(-n2cc(C(=O)O)cn2)nc2ccc(OC3CCCCC3)cc12 [Example 173, 1-(6-(cyclohexyloxy)-4-(dimethylamino)quinazolin-2-yl)-1H-pyrazole-4-carboxylic acid] | 62 |
| 5.9 | CCN(CC)CCNc1nc(-n2cc(C(=O)O)cn2)nc2cc(F)c(Oc3c(C)cccc3C)cc12 [Example 10, 1-[4-(2-Diethylamino-ethylamino)-6-(2,6-dimethyl-phenoxy)-7-fluoro-quinazolin-2-yl]-1H-pyrazole-4-carboxylic acid] | 13 |
| 7.4 | CN(C)c1nc(-n2cc(C(=O)O)cn2)nc2cc(Oc3ccccc3)ccc12 [Example 77, 1-(4-(Dimethylamino)-7-phenoxyquinazolin-2-yl)-1H-pyrazole-4-carboxylic acid] | 75 |
| 7.4 | CN(C)c1nc(-n2cc(C(=O)O)cn2)nc2cc(Cl)c(OC3CCCCC3)cc12 [Example 137, 1-(7-chloro-6-(cyclohexyloxy)-4-(dimethylamino)quinazolin-2-yl)-1H-pyrazole-4-carboxylic acid] | 32 |
| 7.1 | CCN(C)c1nc(-n2cc(C(=O)O)cn2)nc2cc(F)c(OC3CCCCC3)cc12 [Example 104, 1-(7-fluoro-6-(cyclohexyloxy)-4-(ethyl(methyl)amino)quinazolin-2-yl)-1H-pyrazole-4-carboxylic acid] | 49 |
| 7.2 | O=C(O)c1cnn(-c2nc(NC3CC3)c3cc(OC4CCCCC4)c(F)cc3n2)c1 [Example 105, 1-(7-fluoro-6-(cyclohexyloxy)-4-(cyclopropylamino)quinazolin-2-yl)-1H-pyrazole-4-carboxylic acid] | 29 |
| 7.3 | O=C(O)c1cnn(-c2nc(N3CCCC3)c3cc(OC4CCCCC4)c(F)cc3n2)c1 [Example 103, 1-(7-fluoro-6-(cyclohexyloxy)-4-(pyrrolidin-1-yl)quinazolin-2-yl)-1H-pyrazole-4-carboxylic acid] | 31 |
| 7.4 | Cc1cccc(C)c1Oc1cc2c(N3CCCC3)nc(-n3cc(C(=O)O)cn3)nc2cc1F [Example 5, 1-[6-(2,6-Dimethyl-phenoxy)-7-fluoro-4-pyrrolidin-1-yl-quinazolin-2-yl]-1H-pyrazole-4-carboxylic acid] | 25 |
| 7.4 | CCN(CC)c1nc(-n2cc(C(=O)O)cn2)nc2ccc(-c3ccccc3)cc12 [Example 46, 1-(4-(Diethylamino)-6-phenylquinazolin-2-yl)-1H-pyrazole-4-carboxylic acid] | 26 |
| 6.8 | CCN(C)c1nc(-n2cc(C(=O)O)cn2)nc2ccc(C(C)C)cc12 [Example 189, 1-(6-isopropyl-4-(ethyl(methyl)amino)quinazolin-2-yl)-1H-pyrazole-4-carboxylic acid] | 36 |
| 7.2 | CCN(CC)c1nc(-n2cc(C(=O)O)cn2)nc2cc(Cl)c(C(C)C)cc12 [Example 162, 1-(7-chloro-4-diethylamino-6-isopropylquinazolin-2-yl)-1H-pyrazole-4-carboxylic acid] | 40 |
| 7.0 | O=C(O)c1cnn(-c2nc(N3CCCCC3)c3ccc(Oc4ccccc4)cc3n2)c1 [Example 79, 1-(7-Phenoxy-4-(piperidin-1-yl)quinazolin-2-yl)-1H-pyrazole-4-carboxylic acid] | 38 |
| 7.3 | CCN(CC)c1nc(-n2cc(C(=O)O)cn2)nc2ccc(Oc3ccc(Cl)cc3)cc12 [Example 60, 1-(6-(4-Chlorophenoxy)-4-(diethylamino)quinazolin-2-yl)-1H-pyrazole-4-carboxylic acid] | 22 |
| 7.1 | CNc1nc(-n2cc(C(=O)O)cn2)nc2ccc(C3CCCCC3)cc12 [Example 22, 1-(6-Cyclohexyl-4-methylamino-quinazolin-2-yl)-1H-pyrazole-4-carboxylic acid] | 48 |
